Test results published in US4698431A, “Hydroxypyridonate chelating agents” (priority 1985, dated 1987).
Values joined by “and” are separate entries in the source; they are usually repeats but may differ in a detail not shown here. Equal entries are not always repeated. “Also recorded” adds a separate entry of the source.

Tests used:
[1] = Iron removal bioassay in iron-loaded (transfused) mice; format: in vivo
Method: DFHOPOCAM was tested for its effectiveness in removing iron from iron-loaded mice. The mice tested had undergone three transfusions over five days of heat-treated canine red blood cells. Both low i.p. doses (about 20 mg/kg) and high doses (about 200 mg/kg) were administered, in aqueous solution.
Changes in splenic, hepatic, fecal and urinary iron in transfused
male mice treated with potential iron chelators for several days

[2] = Acute toxicity in mice, single i.p. injection; conditions: mouse, in vivo, ip, Table 3, 1000 (*) or 500 (**) μmole/kg, read-out: acute toxicity (asterisk), lethality in 7 days
Method: A test of acute toxicity was also carried out, as follows. Two mice were each given a single i.p. injection of 100, 500, or 1000 μmole/kg of ligand dissolved in 0.5 to 1.0 ml of saline at pH=7.5. Sparingly soluble ligands, dispersed by sonication, were given as finely divided suspensions. After 7 days observation, the mice were killed, selected tissues were removed and fixed for histopathological examination, and unusual findings at autopsy were recorded.
^a Single or double asterisks indicate acutely toxic (50% to 100%
lethality) in 7 days after a single i.p. injection of 1000 or 500
μmole/kg, respectively.

[3] = Promotion of excretion of ^238 Pu(IV) in mice; format: in vivo; conditions: for Pu / actinide removal, in words: mouse, in vivo
Method: The novel chelating agents of the present invention were tested for their effectiveness in promoting excretion of ^238 Pu(IV) in mice as follows. Groups of five mice each received an intravenous injection of […] of ^238 Pu(IV) in citrate buffer, 9250 Bq/kg body wt. One hour later 30 μmole/kg of ligand (120 μmole/kg of monomeric ligands) was injected intraperitoneally in 0.5 ml of saline. The mice were killed 24 h after the Pu injection, frozen, and dissected after partial thawing. The ^238 Pu in skeleton, tissues, and separated excreta was determined by counting of the ^234 U L xrays.
^c Ligand was administered (30 μmole/kg, i.p.) at 1 hr and mice
were killed at 24 hr after injection (i.v.) of ^238 Pu(IV) citrate.
Dosage of monomers, HOPO--CO2 H and HOPO--COMe2, was 120

[4] = Relative iron-binding ability (pM value) by binding competition with EDTA
Method: (§1) Removal of Iron From Transferrin: The effectiveness of 3HOPOCAM as a ferri ion chelator was evaluated in terms of its potential for removing iron from transferrin. In order to account for the effect of proton competitio in the ligand strength comparisons, the relative ironbinding abilities of the ligands were ranked by the pM value, defined as -log [Fe^+3 ] of pH 7.4 solution that is 10^-5 M in total ligand and 10^-6 M in total iron. The pM for 3HOPOCAM was determined (by binding competition experiments with EDTA) to be 21.7, about 4 to 14 units lower than the pM value for siderophores containing three bidentate catechol or hydroxamate groups. […] Ligands incorporating more than two "HOPO" groups should be effective in removing iron from transferrin at even lower concentrations.

[5] = system: transferrin; assay: Removal of iron from transferrin; format: biochemical
Method: as §1

[6] = higher dose, about 200 mg/kg i.p.

CC(=O)N(O)CCCCCNC(=O)CCC(=O)N(O)CCCCCNC(=O)CCC(=O)N(O)CCCCCN [Desferrioxamine, reference compound]
Number Survivors ([1]; 250 mg/kg i.p.): 240/240 and 150/150
Toxic Signs ([1]; 250 mg/kg i.p.): none

O=C(NCCCCN(CCCNC(=O)c1cccc(=O)n1O)C(=O)c1cccc(=O)n1O)c1cccc(=O)n1O [3,4-HOPOCAM]
mortality at 168 h [2]: 50 to 100%

O=C(O)CN(CCN(CC(=O)O)CC(=O)O)CCN(CC(=O)O)CC(=O)O [CaNa3 --DTPA, reference compound]
^238 Pu Excreta (urine and feces, one value) ([3]; ligand 30 μmole/kg i.p. at 1 hr, killed 24 hr after Pu): 70% of injected ^238 Pu

O=C(NCCCN(CCCCN(CCCNC(=O)c1cccc(=O)n1O)C(=O)c1cccc(=O)n1O)C(=O)c1cccc(=O)n1O)c1cccc(=O)n1O [3,4,3-HOPOCAM]
mortality at 168 h [2]: 50 to 100%

O=C(NCCCNC(=O)c1cccc(=O)n1O)c1cccc(=O)n1O [3-HOPOCAM]
pM value (-log [Fe^+3 ]) ([4]; pH 7.4, 10^-5 M total ligand, 10^-6 M total iron, competition with EDTA): 21.7
concentration at which iron was removed from transferrin [5]: approximately mM concentrations
iron removed from transferrin ([5]; 30 min., 1.6 mM solution): about 29%

O=C(NCc1cc(CNC(=O)c2cccc(=O)n2O)cc(CNC(=O)c2cccc(=O)n2O)c1)c1cccc(=O)n1O [HOPO--MECAM]
mortality at 168 h [2]: 50 to 100%

transferrin: transferrin, iron source in the iron removal test
pM value (-log [Fe^+3 ]) of transferrin ([4]; pH 7.4, assuming [HCO3^- ]=0.024M): about 23.6

CC(=O)N(O)CCCCCNC(=O)CCC(=O)N(O)CCCCCNC(=O)CCC(=O)N(O)CCCCCNC(=O)c1cccc(=O)n1O [DFHOPOCAM]
Number Survivors ([1]; 20 mg/kg i.p.): 10/10
Percent Iron Changes vs. Control, Feces ([1]; 20 mg/kg i.p.): +21%
Percent Iron Changes vs. Control, Liver ([1]; 20 mg/kg i.p.): -28%
Percent Iron Changes vs. Control, Spleen ([1]; 20 mg/kg i.p.): -11%
Percent Iron Changes vs. Control, Urine ([1]; 20 mg/kg i.p.): +39%
Potency vs. Standard ([1]; 20 mg/kg i.p.): 4.5
Toxic Signs ([1]; 20 mg/kg i.p.): none
Number Survivors ([1]; 200 mg/kg i.p.): 10/10
Percent Iron Changes vs. Control, Feces ([1]; 200 mg/kg i.p.): +4%
Percent Iron Changes vs. Control, Liver ([1]; 200 mg/kg i.p.): -59%
Percent Iron Changes vs. Control, Spleen ([1]; 200 mg/kg i.p.): -17%
Percent Iron Changes vs. Control, Urine ([1]; 200 mg/kg i.p.): +93%
Potency vs. Standard ([1]; 200 mg/kg i.p.): 0.8
damage to excretory pathways from excess metabolic iron ([1]; about 20 and about 200 mg/kg i.p., daily excreta, five-day recovery period): reversal of most of the damage to excretory pathways
source of iron ([1]; both low and high doses): predominantly the liver
Potency relative to Desferal ([1]; dose not given): about 4.5
behavior and major organs [1, 6]: not grossly affected
change in fecal iron content, in words [1, 6]: little change in iron content
change in urine volume [1, 6]: -6%
decrease in liver iron [1, 6]: 59%
depression of fecal output [1, 6]: 24%
fall in liver weight [1, 6]: 14%
fall in spleen iron content [1, 6]: 17%
increase in spleen weight [1, 6]: 25%
rise in urinary iron [1, 6]: 93%
decrease in water imbibition ([1]; higher dose, about 200 mg/kg i.p., compared with low dose): about the same order of magnitude as that seen for the low dose
major route of excretion ([1]; iron excretion): through the kidneys
behavior ([1]; low dose, about 20 mg/kg i.p.): not affected
change in organ (spleen) weight, in words ([1]; low dose, about 20 mg/kg i.p.): not accompanied by a significant change in organ weight
decline in hepatic (liver) weight ([1]; low dose, about 20 mg/kg i.p.): 8%
decline in splenic iron ([1]; low dose, about 20 mg/kg i.p.): 11%
decrease in hepatic iron ([1]; low dose, about 20 mg/kg i.p.): 28%
fall in fecal output ([1]; low dose, about 20 mg/kg i.p.): 8%
increase in excretion of iron via the feces ([1]; low dose, about 20 mg/kg i.p.): 21%
increase in spleen weight ([1]; low dose, about 20 mg/kg i.p.): 4%
increase in urinary iron ([1]; low dose, about 20 mg/kg i.p.): 39%
necropsy: size or color of major organs ([1]; low dose, about 20 mg/kg i.p.): failed to reveal any changes in the size or color of major organs
stimulation of urine production ([1]; low dose, about 20 mg/kg i.p.): 24%
relative potency (highest fraction of iron excreted), ranking ([1]; mouse, in vivo): greatest
toxicity to the kidneys, ranking ([1]; of a number of compounds tested): least toxic to the kidneys
newly injected Pu excreted in 24 hr ([3]; 24 hr): 86%
Pu / actinide removal, in words [3]: extremely effective; also recorded: most effective removal of such ions
Pu / actinide removal, in words ([3]; listed as HOPOsubstituted desferrioxamine): most effective Pu removal agent
